Assay results as given in ChEMBL document CHEMBL4376815, “The Development Process for Discovery and Clinical Advancement of Modern Antimalarials” (J Med Chem, 2019).
≈ marks a conversion by molar mass, not a printed value.

Tests used:
[1] = test system: Plasmodium falciparum; assay: Antimalarial activity against Plasmodium falciparum infected in human assessed as median parasite clearance time at 30 mg/kg, po administered daily for 3 consecutive day and measured on day 5; assay type: functional
[2] = Half life in human at 300 mg/kg, po by LC-MS/MS analysis; conditions: in vivo
[3] = molecular target: Voltage-gated inwardly rectifying potassium channel KCNH2 (Homo sapiens, UniProt Q12809); assay: Inhibition of human ERG by binding assay
[4] = test system: Plasmodium berghei; assay: Antimalarial activity against Plasmodium berghei infected in NMRI mouse assessed as mean survival days at 10 mg/kg, po administered once and measured up to 30 days; assay type: functional
[5] = test system: Plasmodium berghei; assay: Antimalarial activity against Plasmodium berghei infected in po dosed NMRI mouse assessed as reduction in parasite growth administered daily for 3 consecutive days by flow cytometric analysis; assay type: functional
[6] = Cmax in Wistar Hannover rat at 10 mg/kg, po by LC-MS/MS analysis; assay type: ADME, organism-based; set-up: dose 10 mg/kg, route oral; conditions: in vivo
[7] = AUC (0 to 24 hrs) in human at 150 mg, po for 3 days and measured on day 1 by LC-MS/MS analysis; conditions: in vivo
[8] = test system: Plasmodium vivax; assay: Antimalarial activity against Plasmodium vivax infected in human assessed as reduction in parasite growth at 30 mg/kg, po administered daily for 3 consecutive day and measured on day 5 relative to control; assay type: functional; set-up: scale not given: the % may be the effect or the level left
[9] = Cmax in human at […], po and measured up to 96 to 144 hrs by LC-MS/MS analysis; assay type: ADME, organism-based; set-up: route oral; conditions: in vivo
[10] = test system: Plasmodium berghei; assay: Antimalarial activity against Plasmodium berghei infected in NMRI mouse assessed as reduction in parasite growth at 10 mg/kg, po administered once and measured after 96 hrs by flow cytometric analysis relative to control; assay type: functional; set-up: scale not given: the % may be the effect or the level left
[11] = test system: Plasmodium berghei; assay: Antimalarial activity against Plasmodium berghei infected in NMRI mouse assessed as mean survival days at 100 mg/kg, po administered once and measured up to 30 days; assay type: functional
[12] = Tmax in mouse at 24.6 mg/kg, po and measured up to 24 hrs by LC/MS analysis; assay type: ADME, organism-based; conditions: in vivo
[13] = Half life in human at 30 mg/kg, po; conditions: in vivo
[14] = Cytotoxicity against human THP1 cells assessed as reduction in cell viability after 4 days by XTT assay; assay type: cell-based; conditions: THP-1 cells
[15] = Cmax in human at 150 mg, po for 3 days and measured on day 3 by LC-MS/MS analysis; conditions: in vivo
[16] = Drug recovery in feces of po dosed human by LC-MS/MS analysis; assay type: ADME, organism-based; conditions: faeces, read-out: Drug recovery
[17] = test system: Plasmodium falciparum; assay: Antimalarial activity against Plasmodium falciparum infected in human assessed as reduction in parasite growth at 30 mg/kg, po administered daily for 3 consecutive day and measured on day 5 relative to control; assay type: functional; set-up: scale not given: the % may be the effect or the level left
[18] = test system: Plasmodium falciparum; assay: Antimalarial activity against Plasmodium falciparum infected in po dosed human assessed as reduction in parasite growth; assay type: functional
[19] = test system: Plasmodium falciparum; assay: Antimalarial activity against Plasmodium falciparum TM90C2A infected in human erythrocytes assessed as reduction in [3H]-hypoxanthine incorporation incubated for 48 hrs followed by addition of [3H]-hypoxanthine and measured after 24 hrs by liquid scintillation counting method; assay type: functional, organism-based
[20] = Volume of distribution in Beagle dog at 1 mg/kg, iv by LC-MS/MS analysis; assay type: ADME, organism-based, Canis lupus familiaris; conditions: in vivo

Sequence of Voltage-gated inwardly rectifying potassium channel KCNH2 (Q12809 whole entry): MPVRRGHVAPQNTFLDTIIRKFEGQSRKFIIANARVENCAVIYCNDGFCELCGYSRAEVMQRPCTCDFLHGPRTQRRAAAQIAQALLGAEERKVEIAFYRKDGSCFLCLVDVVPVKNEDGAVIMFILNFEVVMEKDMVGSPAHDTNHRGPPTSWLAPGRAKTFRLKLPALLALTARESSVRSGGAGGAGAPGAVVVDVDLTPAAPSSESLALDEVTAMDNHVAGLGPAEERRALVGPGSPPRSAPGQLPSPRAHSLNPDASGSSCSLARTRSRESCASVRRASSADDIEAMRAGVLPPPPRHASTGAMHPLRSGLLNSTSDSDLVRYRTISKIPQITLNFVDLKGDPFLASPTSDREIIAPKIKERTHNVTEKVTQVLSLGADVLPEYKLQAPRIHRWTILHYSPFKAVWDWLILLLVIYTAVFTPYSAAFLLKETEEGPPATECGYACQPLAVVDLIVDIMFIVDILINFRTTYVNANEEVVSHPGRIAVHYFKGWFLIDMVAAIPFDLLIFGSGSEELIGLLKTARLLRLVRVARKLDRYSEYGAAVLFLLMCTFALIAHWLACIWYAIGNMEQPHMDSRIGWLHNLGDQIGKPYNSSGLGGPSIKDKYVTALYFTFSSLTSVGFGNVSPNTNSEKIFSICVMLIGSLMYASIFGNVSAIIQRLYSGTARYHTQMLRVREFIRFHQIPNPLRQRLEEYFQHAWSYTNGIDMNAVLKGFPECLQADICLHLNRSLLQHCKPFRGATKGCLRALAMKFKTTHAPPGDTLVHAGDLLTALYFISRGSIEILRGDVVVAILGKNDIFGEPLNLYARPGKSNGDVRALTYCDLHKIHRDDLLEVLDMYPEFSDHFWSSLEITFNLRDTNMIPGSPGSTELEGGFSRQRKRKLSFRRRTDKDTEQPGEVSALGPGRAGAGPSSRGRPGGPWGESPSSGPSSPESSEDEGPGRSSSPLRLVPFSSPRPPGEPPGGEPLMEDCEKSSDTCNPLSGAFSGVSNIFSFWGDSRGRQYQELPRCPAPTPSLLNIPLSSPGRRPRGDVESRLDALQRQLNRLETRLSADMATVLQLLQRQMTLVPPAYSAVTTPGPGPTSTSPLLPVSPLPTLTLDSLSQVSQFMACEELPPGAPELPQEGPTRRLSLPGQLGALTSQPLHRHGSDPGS

C[C@H]1Cc2c([nH]c3cc(Cl)c(F)cc23)[C@@]2(N1)C(=O)Nc1ccc(Cl)cc12 [CIPARGAMIN]
Time [1]: 12 h
half-life [2]: 24 h
IC50 [3]: ≥ 30 µM
MSD [4]: 13.3 days
ED50 [5]: 1.2 mg/kg
ED90 [5]: 2.7 mg/kg
ED99 [5]: 5.3 mg/kg
Cmax [6]: 1210 ng/mL
AUC(0-t) at 24 h [7]: 15000 ng·h/mL
Activity [8]: 100%
Cmax [9]: 2000 ng/mL
Activity [10]: 9.96%
MSD [11]: >30 days
Tmax [12]: 1 h
half-life [13]: 20.8 h
CC50 at 96 h [14]: > 10 µM
Cmax [15]: 1770 ng/mL
dose excreted [16]: 32%
Activity [17]: 100%
MIC [18]: 0.126 ng/mL (≈ 0.323 nM)
EC50 [19]: 0.0005 to 0.0014 µM
Vd [20]: 2.17 L/kg
